Test results reported in patent US8093210B2, “Treatment of sepsis with 5-ethyl-1-phenyl-2(1H)-pyridone” (Solanan, Inc., priority 2008, dated 2012).

Tested on: TNF-α in THP-1 cells
Assay: Secreted and cell-associated TNF-α in PMA-transformed THP-1 cells exposed to LPS (ELISA, Example 6)
Assay type: cell-based, human
Details: 3 hr, mean ± SEM, four replicates; for Secreted TNF-α: THP-1, 1 ng/mL LPS; for Cell-associated TNF-α: THP-1 lysate, 1 ng/mL LPS
Experimental: The effects of 5-EPP on secreted and cell associated TNF-α was examined in vitro using phorbol myristate acetate-transformed (PMA; Sigma, St. Louis, Mo.) human monocytic cells, THP-1 (ATCC, Manassas, Va.) according to the technique described by Grattendick et al. (International Immunopharmacology 2008, 8; 679-87). Briefly, cells were incubated for 3 hr on 96-well plates with culture media, 1 ng/mL LPS, or 1 ng/mL LPS 0-200 μg/mL 5-EPP before culture media were collected and analyzed for the presence of secreted TNF-α via a commercially available enzyme-linked immunosorbent assay (ELISA) kit (BD Biosciences, San Diego, Calif.). Separately, identically treated cells were lysed and their cell-associated TNF-α levels were determined via ELISA. All treatment groups were simultaneously compared using one-way ANOVA and Tukey's multiple comparison tests.
The values are expressed in pg/mL as mean±standard error of the mean for four replicates at all concentrations in each case.

## CCc1ccc(=O)n(-c2ccccc2)c1 [5-EPP, 5-ethyl-1-phenyl-2-(1H)-pyridone]
10 μg/mL 5-EPP
  Secreted TNF-α: 5382.8 ± 91.8 pg/mL
  Cell-associated TNF-α: 35.4 ± 3.1 pg/mL
33 μg/mL 5-EPP
  Secreted TNF-α: 3261.5 ± 94.1 pg/mL
  Cell-associated TNF-α: 25.9 ± 1.6 pg/mL
100 μg/mL 5-EPP
  Secreted TNF-α: 2073.7 ± 60.7 pg/mL
  Cell-associated TNF-α: 19.0 ± 0.9 pg/mL
200 μg/mL 5-EPP
  Secreted TNF-α: 1469.7 ± 58.9 pg/mL
  Cell-associated TNF-α: 10.1 ± 1.3 pg/mL
